Laboratory results taken from US12180226B2, “Spirotricycle RIPK1 inhibitors and methods of uses thereof” (Merck Sharp & Dohme LLC, priority 2021, dated 2024).

Biological target: RIPK1 (recombinant GST-RIPK1 kinase domain, residues 1-327) (Homo sapiens (Human), UniProt Q13546)
Test: RIPK1-ADP-Glo Enzymatic Assay
Format: biochemical
Settings: ADP-Glo; 25 nM GST-RIPK1, 300 μM ATP; assay lower limit ~25 nM; read-out: RIPK1 V0 Ec50
Outline: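 Compounds titrated 10-pt 1:3 from 100000 nM top (1% DMSO); 30 min preinc w/ 25 nM Sf21-expressed enzyme, RT; start w/ ATP (300 μM final) + dephos-MBP (3 μM); 150 min; ADP-Glo lumi; 4-param fit → EC50.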

Chain of RIPK1 (recombinant GST-RIPK1 kinase domain, residues 1-327) (Q13546 1-327): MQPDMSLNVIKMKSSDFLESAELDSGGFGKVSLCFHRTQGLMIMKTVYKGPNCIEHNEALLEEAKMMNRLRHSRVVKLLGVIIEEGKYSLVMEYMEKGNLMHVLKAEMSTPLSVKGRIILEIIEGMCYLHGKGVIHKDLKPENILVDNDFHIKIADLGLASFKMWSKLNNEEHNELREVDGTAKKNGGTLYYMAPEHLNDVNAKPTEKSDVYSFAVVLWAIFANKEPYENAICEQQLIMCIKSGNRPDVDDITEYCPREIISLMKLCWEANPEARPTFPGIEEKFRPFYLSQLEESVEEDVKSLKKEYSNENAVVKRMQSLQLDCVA

O=C1N2[C@@H](CC[C@H]2c2ccccc2)OC12CCN(c1ncc(-c3cnco3)cc1F)CC2 [Example 21.5, (5′S,7a′R)-1-[3-fluoro-5-(1,3-oxazol-5-yl)pyridin-2-yl]-5′-phenyltetrahydro-3′H-spiro[piperidine-4,2′-pyrrolo[2,1-b][1,3]oxazol]-3′-one]
EC50: < 0.025 µM

N#Cc1cc([C@@H]2CC[C@H]3OC4(CCN(C(=O)c5ccccc5)CC4)C(=O)N32)ccc1F [Example 17.4, 5-((5′S,7a′R)-1-benzoyl-3′-oxotetrahydro-3′H-spiro[piperidine-4,2′-pyrrolo[2,1-b]oxazol]-5′-yl)-2-fluorobenzonitrile]
EC50: 0.196 µM

O=C(c1cnnn1-c1cccnc1)N1CCC2(CC1)O[C@@H]1CC[C@@H](c3cc(F)cc(F)c3)N1C2=O [Example 6.30, (5′S,7a′R)-5′-(3,5-difluorophenyl)-1-[1-(pyridin-3-yl)-1H-1,2,3-triazole-5-car-bonyl]tetrahydro-3′H-spiro[piperidine-4,2′-pyrrolo[2,1-b][1,3]oxazol]-3′-one]
EC50: 0.208 µM

Cc1nc(C(=O)N2CCC3(CC2)O[C@@H]2CC[C@@H](c4cc(F)cc(F)c4)N2C3=O)no1 [Example 6.20, (5′S,7a′R)-5′-(3,5-difluorophenyl)-1-(5-methyl-1,2,4-oxadi-azole-3-carbonyl)-tetrahydro-3′H-spiro [piperidine-4,2′-pyrrolo[2,1-b][1,3]oxazol]-3′-one]
EC50: 0.136 µM

N#Cc1ccc(N2CCC3(CC2)O[C@@H]2CC[C@@H](c4cccc(F)c4)N2C3=O)n2nccc12 [Example 4.157, 7-[(5′S,7a′R)-5′-(3-fluorophenyl)-3′-oxotetrahydro-1H,3′H-spiro[piperidine-4,2′-pyrrolo[2,1-b] [1,3]oxazol]-1-yl]pyrazolo[1,5-a] pyridine-4-carbonitrile]
EC50: < 0.025 µM

N#Cc1ccc(F)c(C(=O)N2CCC3(CC2)O[C@@H]2CC[C@@H](c4cc(F)cc(F)c4)N2C3=O)c1 [Example 5.16, 3-((5′S,7a′R)-5′-(3,5-difluorophenyl)-3′-oxo-tetrahydro-3′H-spiro [piperidine-4,2′-pyrrolo-[2,1-b]oxazole]-1-carbon-yl)-4-fluorobenzonitrile]
EC50: < 0.025 µM

N#Cc1cncc(N2CCC3(CC2)O[C@@H]2CC[C@@H](c4ccccc4)N2C3=O)n1 [Example 4.7, 6-[(5′S,7a′R)-3′-oxo-5′-phenyltetrahydro-1H,3′H-spiro[piperidine-4,2′-pyrrolo[2,1-b] [1,3]oxazol]-1-yl]pyrazine-2-carbonitrile]
EC50: 0.113 µM

O=C1N2[C@@H](CC[C@H]2c2ccccc2)OC12CCN(c1ccc(-c3cc4n(n3)CCC4)c3ncnn13)CC2 [Example 21.18, (5′S,7a′R)-1-[8-(5,6-dihydro-4H-pyrrolo[1,2-b]pyrazol-2-yl)[1,2,4]triazolo[1,5-a]pyridin-5-yl]-5′-phenyltetrahydro-3′H-spiro[piperidine-4,2′-pyrrolo[2,1-b][l,3]oxazol]-3′-one]
EC50: < 0.025 µM

COc1cccnc1C(=O)N1CCC2(CC1)O[C@@H]1CC[C@@H](c3cc(F)cc(F)c3)N1C2=O [Example 6.81, (5′S,7a′R)-5′-(3,5-difluorophenyl)-1-(3-methoxypyridine-2-carbonyl)tetrahydro-3′H-spiro[piperidine-4,2′-pyrrolo[2,1-b] [1,3]oxazol]-3′-one]
EC50: 0.935 µM

N#CC1(NC(=O)c2nc(N3CCC4(CC3)O[C@@H]3CC[C@@H](c5cc(F)cc(F)c5)N3C4=O)ncc2F)CCC1 [Example 7.13, N-(1-cyanocyclobutyl)-2-[(5′S,7a′R)-5′-(3,5-difluorophenyl)-3′-oxotetrahydro-1H,3′H-spiro[piperidine-4,2′-pyrrolo[2,1-b][1,3]oxazol]-1-yl]-5-fluoropyrimidine-4-carboxamide]
EC50: 0.191 µM

Cc1ccc(C(=O)N2CCC3(CC2)O[C@@H]2CC[C@@H](c4ccccc4)N2C3=O)c(F)c1 [Example 6.152, (5′S,7a′R)-1-(2-fluoro-4-methylbenzene-1-carbonyl)-5′-phenyl-tetrahydro-3′H-spiro [piperidine-4,2′-pyrrolo[2,1-b][1,3]oxazol]-3′-one]
EC50: < 0.025 µM

Cn1cnc(-c2ccc(N3CCC4(CC3)O[C@@H]3CC[C@@H](c5ccccc5)N3C4=O)n3ncnc23)c1 [Example 21.21, (5′S,7a′R)-1-[8-(1-methyl-1H-imidazol-4-yl)[1,2,4]triazolo[1,5-a]pyridin-5-yl]-5′-phenyltetrahydro-3′H-spiro[piperidine-4,2′-pyrrolo[2,1-b][l,3]oxazol]-3′-one]
EC50: < 0.025 µM

COc1ccc(N2CCC3(CC2)O[C@@H]2CC[C@@H](c4ccccc4)N2C3=O)nc1OC [Example 11.31, (5′S,7a′R)-1-(5,6-dimethoxypyridin-2-yl)-5′-phenyltetrahydro-3′H-spiro[piperidine-4,2′-pyrrolo[2,1-b][1,3]oxazol]-3′-one]
EC50: < 0.025 µM

O=C(c1ccccc1)N1CCC2(CC1)O[C@@H]1CC[C@@H](c3ccc(F)cc3)N1C2=O [Example 2.8, (5′S,7a′R)-1-benzoyl-5′-(4-fluorophenyl)tetrahydro-3′H-spiro[piperidine-4,2′-pyrrolo[2,1-b]oxazol]-3′-one]
EC50: 0.0368 µM

Cc1cncc(C(=O)N2CCC3(CC2)O[C@@H]2CC[C@@H](c4cc(F)cc(F)c4)N2C3=O)c1 [Example 6.59, (5′S,7a′R)-5'-(3,5-difluorophenyl)-1-(5-methylpyridine-3-carbonyl)tetrahydro-3′H-spiro[piperidine-4,2′-pyrrolo[2,1-b] [1,3]oxazol]-3′-one]
EC50: 0.281 µM

N#Cc1ccccc1C(=O)N1CCC2(CC1)O[C@@H]1CC[C@@H](c3cc(F)cc(F)c3)N1C2=O [Example 5.13, 2-((5′S,7a′R)-5′-(3,5-difluorophenyl)-3′-oxo-tetrahydro-3′H-spiro [piperidine-4,2′-pyrrolo-[2,1-b]oxazole]-1-carbon-yl)benzonitrile]
EC50: 0.277 µM

O=C(c1cccc(-c2ccccc2)n1)N1CCC2(CC1)O[C@@H]1CC[C@@H](c3cc(F)cc(F)c3)N1C2=O [Example 6.97, (5′S,7a′R)-5′-(3,5-difluorophenyl)-1-(6-phenylpyridine-2-carbonyl)tetrahydro-3′H-spiro[piperidine-4,2′-pyrrolo[2,1-b] [1,3]oxazol]-3′-one]
EC50: < 0.025 µM

CCc1ccnc(C(=O)N2CCC3(CC2)O[C@@H]2CC[C@@H](c4cc(F)cc(F)c4)N2C3=O)c1 [Example 6.79, (5′S,7a′R)-5′-(3,5-difluorophenyl)-1-(4-ethylpyridine-2-carbonyl)tetrahydro-3′H-spiro[piperidine-4,2′-pyrrolo[2,1-b][1,3]oxazol]-3′-one]
EC50: 0.0383 µM

O=C1N2[C@@H](CC[C@H]2c2ccccc2)OC12CCN(c1nc3ccncc3o1)CC2 [Example 4.158, (5′S,7a′R)-1-([1,3]oxazolo[5,4-c]pyridin-2-yl)-5′-phenyltetrahydro-3′H-spiro[piperidine-4,2′-pyrrolo[2,1-b] [1,3]oxazol]-3′-one]
EC50: 0.0508 µM

O=C(c1onc2ccccc12)N1CCC2(CC1)O[C@@H]1CC[C@@H](c3cc(F)cc(F)c3)N1C2=O [Example 6.50, (5′S,7a′R)-1-(2,1-benzoxazole-3-carbonyl)-5′-(3,5-difluorophenyl)tetra-hydro-3′H-spiro [piperidine-4,2′-pyrrolo[2,1-b][1,3]oxazol]-3′-one]
EC50: < 0.025 µM

N#Cc1cc(N2CCC3(CC2)O[C@@H]2CC[C@@H](c4ccccc4F)N2C3=O)ncn1 [Example 4.104, 6-((5′S,7a′R)-5′-(2-fluorophenyl)-3′-oxotetrahydro-3′H-spiro[piperidine-4,2′-pyrrolo[2,1-b]oxazol]-1-yl)pyrimidine-4-carbonitrile]
EC50: 0.0339 µM

CC(F)c1cc(N2CCC3(CC2)O[C@@H]2CC[C@@H](c4ccccc4)N2C3=O)ncn1 (stereo partly drawn) [Example 4.215, (5′S,7a′R)-1-[6-(1-fluoroethyl)pyrimidin-4-yl]-5′-phenyltetrahydro-3′H-spiro[piperidine-4,2′-pyrrolo[2,1-b] [1,3]oxazol]-3′-one]
EC50: 0.552 µM

O=C(c1ncccc1F)N1CCC2(CC1)O[C@@H]1CC[C@@H](c3cc(F)cc(F)c3)N1C2=O [Example 6.54, (5′S,7a'R)-5′-(3,5-difluorophenyl)-1-(3-fluoropyridine-2-carbonyl)tetrahydro-3′H-spiro[piperidine-4,2′-pyrrolo[2,1-b] [1,3]oxazol]-3-one]
EC50: 0.0451 µM

CC(C)(O)C#Cc1ccc(C(=O)N2CCC3(CC2)O[C@@H]2CC[C@@H](c4cc(F)cc(F)c4)N2C3=O)cc1 [Example 5.26, (5′S,7a′R)-5′-(3,5-difluoro-phenyl)-1-(4-(3-hydroxy-3-methylbut-1-yn-1-yl)-benzoyl)tetrahydro-3′H-spiro[piperidine-4,2′-pyrrolo[2,1-b]oxazol]-3′-one]
EC50: 0.737 µM

COC(=O)c1ccc(N2CCC3(CC2)O[C@@H]2CC[C@@H](c4ccccc4)N2C3=O)nc1 [Example 4.202, methyl 6-[(5′S,7a′R)-3′-oxo-5′-phenyltetrahydro-1H,3′H-spiro[piperidine-4,2′-pyrrolo[2,1-b] [1,3]oxazol]-1-yl]pyridine-3-carboxylate]
EC50: 0.0385 µM

CSc1cnc(N2CCC3(CC2)O[C@@H]2CC[C@@H](c4cc(F)cc(F)c4)N2C3=O)nc1 [Example 4.55, (5′S,7a′R)-5′-(3,5-difluorophenyl)-1-[5-(methylsulfanyl)pyrimidin-2-yl]tetrahydro-3′H-spiro[piperidine-4,2′-pyrrolo[2,1-b] [1,3]oxazol]-3′-one]
EC50: 0.246 µM

N#Cc1cnc(N2CCC3(CC2)O[C@@H]2CC[C@@H](c4cc(F)cc(F)c4)N2C3=O)nc1 [Example 4.76, 2-[(5′S,7a′R)-5′-(3,5-difluorophenyl)-3′-oxotetrahydro-1H,3′H-spiro[piperidine-4,2′-pyrrolo[2,1-b] [1,3]oxazol]-1-yl]pyrimidine-5-carbonitrile]
EC50: 0.0382 µM
